In patent publication US10202361B2, “Pyridazinones as herbicides” (E I DU PONT DE NEMOURS AND COMPANY, priority 2014, dated 2019):
Read-outs that look alike come from different tables or passages of the source.

Experiments:
Assay type in all cases: in vivo
[1] = test system: barnyardgrass (Echinochloa crus-galli); test: Test A pre-/postemergence greenhouse herbicide test; conditions: Echinochloa crus-galli, 240 h, 0 to 100 scale (0 no effect, 100 complete control), approx. 10 d, read-out: Plant response rating, Barnyardgrass; for pest or weed control at 125 g/ha: 125 g ai/ha; for pest or weed control at 500 g/ha: 500 g ai/ha
In short: (§1)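 Seeds sown in loam–sand blend received a directed preemergence soil spray; postemergence spray was applied at the same time to plants 2–10 cm tall at one- to two-leaf stage. Compounds were in non-phytotoxic solvent with surfactant. Visual injury versus untreated controls after ~10 d in greenhouse, 0–100 scale (100 = complete control).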

corn (Zea mays) = test: as above; conditions: Zea mays, 240 h, 0 to 100 scale (0 no effect, 100 complete control), approx. 10 d; for Corn plant response rating (crop injury, 0 = no effect, 100 = complete kill) at 125 g/ha: 125 g ai/ha; for Corn plant response rating (crop injury, 0 = no effect, 100 = complete kill) at 500 g/ha: 500 g ai/ha
In short: as §1

[2] = test system: crabgrass, Large (large crabgrass, Digitaria sanguinalis); test: as above; conditions: Digitaria sanguinalis, 240 h, 0 to 100 scale (0 no effect, 100 complete control), approx. 10 d, read-out: Plant response rating, Crabgrass, Large; for pest or weed control at 125 g/ha: 125 g ai/ha; for pest or weed control at 500 g/ha: 500 g ai/ha
In short: as §1

[3] = test system: foxtail, giant (giant foxtail, Setaria faberii); test: as above; conditions: Setaria faberi, 240 h, 0 to 100 scale (0 no effect, 100 complete control), approx. 10 d, read-out: Plant response rating, Foxtail, Giant; for pest or weed control at 125 g/ha: 125 g ai/ha; for pest or weed control at 500 g/ha: 500 g ai/ha
In short: as §1

[4] = test system: morningglory (Ipomoea spp.); test: as above; conditions: Ipomoea, 240 h, 0 to 100 scale (0 no effect, 100 complete control), approx. 10 d, read-out: Plant response rating, Morningglory; for pest or weed control at 125 g/ha: 125 g ai/ha; for pest or weed control at 500 g/ha: 500 g ai/ha
In short: as §1

[5] = test system: pigweed (Amaranthus retroflexus); test: as above; conditions: Amaranthus retroflexus, 240 h, 0 to 100 scale (0 no effect, 100 complete control), approx. 10 d, read-out: Plant response rating, Pigweed; for pest or weed control at 125 g/ha: 125 g ai/ha; for pest or weed control at 500 g/ha: 500 g ai/ha
In short: as §1

[6] = test system: velvetleaf (Abutilon theophrasti); test: as above; conditions: Abutilon theophrasti, 240 h, 0 to 100 scale (0 no effect, 100 complete control), approx. 10 d, read-out: Plant response rating, Velvetleaf; for pest or weed control at 125 g/ha: 125 g ai/ha; for pest or weed control at 500 g/ha: 500 g ai/ha
In short: as §1

[7] = test system: wheat (Triticum aestivum); test: as above; conditions: Triticum aestivum, 240 h, 0 to 100 scale (0 no effect, 100 complete control), approx. 10 d, read-out: Plant response rating, Wheat; for plant injury at 125 g/ha: 125 g ai/ha; for plant injury at 500 g/ha: 500 g ai/ha
In short: as §1

[8] = test system: barnyardgrass (Echinochloa crus-galli); test: Test C pre-/postemergence greenhouse herbicide test; conditions: for Plant response rating: Barnyardgrass; for Plant response rating, Barnyardgrass: visual rating on scale 0 (no effect) to 100 (complete control), 13 to 15 d
In short: (§2)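 Plant response is scored on a 0–100 scale, where 100 means complete control, by visual comparison with controls 13 to 15 d after greenhouse treatment. Applications are made pre- and postemergence using a surfactant-containing, non-phytotoxic solvent formulation.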

[9] = test system: galium (catchweed bedstraw, Galium aparine); test: as above; conditions: for pest or weed control at 31 g/ha / pest or weed control at 62 g/ha / pest or weed control at 125 g/ha / pest or weed control at 250 g/ha: Galium, read-out: Plant response rating; for pest or weed control at 31 g/ha: 31 g ai/ha; for pest or weed control at 62 g/ha: 62 g ai/ha; for pest or weed control at 125 g/ha: 125 g ai/ha; for pest or weed control at 250 g/ha: 250 g ai/ha; for Plant response rating, Galium: visual rating on scale 0 (no effect) to 100 (complete control), 13 to 15 d
In short: as §2

COc1cc(=O)n(-c2ccc(F)cc2)nc1Cc1ccnc(C(F)(F)F)c1 [Compound 17, 2-(4-fluorophenyl)-5-methoxy-6-[[2-(trifluoromethyl)-4-pyridinyl]methyl]-3 (2H)-pyridazinone]
pest or weed control at 125 g/ha ([1]; post-emergence, Postemergence): 80%
pest or weed control at 500 g/ha ([1]; post-emergence, Postemergence): 90%
pest or weed control at 125 g/ha ([1]; pre-emergence, Preemergence): 80%
pest or weed control at 500 g/ha ([1]; pre-emergence, Preemergence): 100%
Corn plant response rating (crop injury, 0 = no effect, 100 = complete kill) at 125 g/ha (corn (Zea mays); post-emergence, Postemergence): 60%
Corn plant response rating (crop injury, 0 = no effect, 100 = complete kill) at 500 g/ha (corn (Zea mays); post-emergence, Postemergence): 80%
Corn plant response rating (crop injury, 0 = no effect, 100 = complete kill) at 125 g/ha (corn (Zea mays); pre-emergence, Preemergence): 40%
Corn plant response rating (crop injury, 0 = no effect, 100 = complete kill) at 500 g/ha (corn (Zea mays); pre-emergence, Preemergence): 50%
pest or weed control at 125 g/ha ([2]; post-emergence, Postemergence): 90%
pest or weed control at 500 g/ha ([2]; post-emergence, Postemergence): 90%
pest or weed control at 125 g/ha ([2]; pre-emergence, Preemergence): 100%
pest or weed control at 500 g/ha ([2]; pre-emergence, Preemergence): 100%
pest or weed control at 125 g/ha ([3]; post-emergence, Postemergence): 90%
pest or weed control at 500 g/ha ([3]; post-emergence, Postemergence): 90%
pest or weed control at 125 g/ha ([3]; pre-emergence, Preemergence): 100%
pest or weed control at 500 g/ha ([3]; pre-emergence, Preemergence): 100%
pest or weed control at 125 g/ha ([4]; post-emergence, Postemergence): 100%
pest or weed control at 500 g/ha ([4]; post-emergence, Postemergence): 100%
pest or weed control at 125 g/ha ([5]; post-emergence, Postemergence): 100%
pest or weed control at 500 g/ha ([5]; post-emergence, Postemergence): 100%
pest or weed control at 125 g/ha ([5]; pre-emergence, Preemergence): 100%
pest or weed control at 500 g/ha ([5]; pre-emergence, Preemergence): 100%
pest or weed control at 125 g/ha ([6]; post-emergence, Postemergence): 100%
pest or weed control at 500 g/ha ([6]; post-emergence, Postemergence): 100%
pest or weed control at 125 g/ha ([6]; pre-emergence, Preemergence): 100%
pest or weed control at 500 g/ha ([6]; pre-emergence, Preemergence): 100%
plant injury at 125 g/ha ([7]; post-emergence, Postemergence): 60%
plant injury at 500 g/ha ([7]; post-emergence, Postemergence): 70%
plant injury at 125 g/ha ([7]; pre-emergence, Preemergence): 20%
plant injury at 500 g/ha ([7]; pre-emergence, Preemergence): 50%
Plant response rating ([8]; Postemergence, 31 g ai/ha): 5
Plant response rating ([8]; Postemergence, 62 g ai/ha): 5
Plant response rating ([8]; Postemergence, 125 g ai/ha): 10
Plant response rating ([8]; Postemergence, 250 g ai/ha): 35
Plant response rating ([8]; Preemergence, 31 g ai/ha): 80
Plant response rating ([8]; Preemergence, 62 g ai/ha): 90
Plant response rating ([8]; Preemergence, 125 g ai/ha): 100
Plant response rating ([8]; Preemergence, 250 g ai/ha): 100
pest or weed control at 31 g/ha ([9]; post-emergence, Postemergence): 60%
pest or weed control at 62 g/ha ([9]; post-emergence, Postemergence): 70%
pest or weed control at 125 g/ha ([9]; post-emergence, Postemergence): 75%
pest or weed control at 250 g/ha ([9]; post-emergence, Postemergence): 85%
pest or weed control at 31 g/ha ([9]; pre-emergence, Preemergence): 100%
pest or weed control at 62 g/ha ([9]; pre-emergence, Preemergence): 100%
pest or weed control at 125 g/ha ([9]; pre-emergence, Preemergence): 100%
pest or weed control at 250 g/ha ([9]; pre-emergence, Preemergence): 100%

CCOc1cc(=O)n(-c2ccc(F)cc2)nc1C(O)c1ccnc(C(F)(F)F)c1 (centres unmarked) [Compound 23, 5-ethoxy-2-(4-fluorophenyl)-6-[hydroxy[2-(trifluoromethyl)-4-pyridinyl]methyl]-3(2H)-pyridazinone]
pest or weed control at 125 g/ha ([1]; post-emergence, Postemergence): 20%
pest or weed control at 500 g/ha ([1]; post-emergence, Postemergence): 100%
pest or weed control at 125 g/ha ([1]; pre-emergence, Preemergence): 20%
pest or weed control at 500 g/ha ([1]; pre-emergence, Preemergence): 100%
Corn plant response rating (crop injury, 0 = no effect, 100 = complete kill) at 125 g/ha (corn (Zea mays); post-emergence, Postemergence): 50%
Corn plant response rating (crop injury, 0 = no effect, 100 = complete kill) at 500 g/ha (corn (Zea mays); post-emergence, Postemergence): 90%
Corn plant response rating (crop injury, 0 = no effect, 100 = complete kill) at 125 g/ha (corn (Zea mays); pre-emergence, Preemergence): 0%
Corn plant response rating (crop injury, 0 = no effect, 100 = complete kill) at 500 g/ha (corn (Zea mays); pre-emergence, Preemergence): 20%
pest or weed control at 125 g/ha ([2]; post-emergence, Postemergence): 60%
pest or weed control at 500 g/ha ([2]; post-emergence, Postemergence): 100%
pest or weed control at 125 g/ha ([2]; pre-emergence, Preemergence): 100%
pest or weed control at 500 g/ha ([2]; pre-emergence, Preemergence): 100%
pest or weed control at 125 g/ha ([3]; post-emergence, Postemergence): 50%
pest or weed control at 500 g/ha ([3]; post-emergence, Postemergence): 90%
pest or weed control at 125 g/ha ([3]; pre-emergence, Preemergence): 100%
pest or weed control at 500 g/ha ([3]; pre-emergence, Preemergence): 100%
pest or weed control at 125 g/ha ([4]; post-emergence, Postemergence): 20%
pest or weed control at 500 g/ha ([4]; post-emergence, Postemergence): 60%
pest or weed control at 125 g/ha ([4]; pre-emergence, Preemergence): 100%
pest or weed control at 500 g/ha ([4]; pre-emergence, Preemergence): 100%
pest or weed control at 125 g/ha ([5]; post-emergence, Postemergence): 100%
pest or weed control at 500 g/ha ([5]; post-emergence, Postemergence): 100%
pest or weed control at 125 g/ha ([5]; pre-emergence, Preemergence): 100%
pest or weed control at 500 g/ha ([5]; pre-emergence, Preemergence): 100%
pest or weed control at 125 g/ha ([6]; post-emergence, Postemergence): 20%
pest or weed control at 500 g/ha ([6]; post-emergence, Postemergence): 70%
pest or weed control at 125 g/ha ([6]; pre-emergence, Preemergence): 80%
pest or weed control at 500 g/ha ([6]; pre-emergence, Preemergence): 100%
plant injury at 125 g/ha ([7]; post-emergence, Postemergence): 80%
plant injury at 500 g/ha ([7]; post-emergence, Postemergence): 90%
plant injury at 125 g/ha ([7]; pre-emergence, Preemergence): 0%
plant injury at 500 g/ha ([7]; pre-emergence, Preemergence): 90%
Plant response rating ([8]; Preemergence, 31 g ai/ha): 25
Plant response rating ([8]; Preemergence, 62 g ai/ha): 25
Plant response rating, Barnyardgrass ([8]; Preemergence, 8 g ai/ha): 0
Plant response rating, Barnyardgrass ([8]; Preemergence, 16 g ai/ha): 0
Plant response rating, Galium ([9]; Preemergence, 8 g ai/ha): 85
Plant response rating, Galium ([9]; Preemergence, 16 g ai/ha): 85
pest or weed control at 31 g/ha ([9]; pre-emergence, Preemergence): 90%
pest or weed control at 62 g/ha ([9]; pre-emergence, Preemergence): 95%
